Reference: ChEMBL document CHEMBL1143983, “A photoswitchable ITAM peptidomimetic: synthesis and real time surface plasmon resonance (SPR) analysis of the effects of cis-trans isomerization on binding” (Bioorg Med Chem, 2008)

Biological target: Tyrosine-protein kinase SYK (Homo sapiens, UniProt P43405)
Assay: Binding affinity to Syk tSH2 domain by SPR binding assay

CC(=O)N[C@@H](Cc1ccc(OP(=O)(O)O)cc1)C(=O)N[C@H](C(=O)NCC(=O)N[C@@H](CC(C)C)C(=O)NCC(=O)NCc1ccc(/N=N/c2ccc(C(=O)NCC(=O)N[C@@H](Cc3ccc(OP(=O)(O)O)cc3)C(=O)N[C@@H](CCC(=O)O)C(=O)N[C@H](C(=O)N[C@@H](CC(C)C)C(N)=O)[C@H](C)O)cc2)cc1)[C@H](C)O
Kd: 65 nM
